Source: patent US20070213291A1, “Therapeutically useful synthetic oligonucleotides” (priority 1999, published 2007)

Experiments:
[1] = system: SK-OV-3 human ovarian cancer cells; test: Inhibition of SK-OV-3 cell proliferation (MTT); format: cell-based; conditions: 100 μg/ml, 48 h, 5×10^5 cells/ml
Protocol: Cells were seeded in 6 (1 ml/well), 24 (0.5 ml/well) or 96 (0.1 ml/well) well flat-bottom microplates and were maintained at 37° C. in a 5% CO2 atmosphere. Unless stated otherwise, 2.5×10^5 cells/ml were incubated with 0 μg/ml (control) and 100 μg/ml (treated) of 2 to 45 base sequences containing A, C, G and T for 48 h.
Cell proliferation was measured using dimethylthiazol-diphenyl-tetrazolium (MTT) reduction (Mosman et al. J. Immunol. Methods 65:55, 1983). MTT was measured at a wavelength of 570 nm using a multiplate spectrophotometer reader (ELX800, Bio-TEK Instruments Inc., Winooski, Vt.).
SK-OV-3 ovarian cancer cells are a p53 mutated, p21/waf-1/Cip deleted, p15^ink4B deleted, p16^Ink4 deleted, metastatichuman solid tumor model. SK-OV-3 cells (5×10^5 cells/ml) were incubated with 2, 6 and 18 base GT sequences (Table 12).

[2] = system: MCF-7 human breast cancer cells; test: Cell cycle stage in MCF-7 cells (propidium iodide flow cytometry); format: cell-based; conditions: MCF-7, 5×10^5 cells/ml, 24 h
Protocol: Cell cycle stage was determined using a […]™ PLUS DNA commercial kit (Becton Dickinson). Briefly, nuclei from cells were obtained by dissolving the cell membrane in a nonionic detergent, eliminating the cell cytoskeleton and nuclear proteins with trypsin, digesting the cellular RNA with RNase and stabilizing the nuclear chromatin with spermine. Propidium iodide was added to the cell nuclei and their fluorescence was analyzed in a flow cytometer equipped with electronic doublet discrimination capability (FACSCalibur, Becton Dickinson, San Jose, Calif.). Accumulation of cells in G0/G1, early S (SE), mid S (SM), late S (SL) or G2/M phases of the cell cycle was analyzed using MODFIT LT software (Verity Software House Inc., Topsham, Mass.).
Exponentially growing Jurkat human leukemia T cells (Table 28) and MCF-7 human breast cancer cells (5×10^5 cells/ml) (Table 29) were incubated for 24 h with 2, 6, 15, 18, 27 and 45 base sequences containing A, C, G and T. The cells were collected and centrifuged and cell cycle stage was determined.

[3] = system: Jurkat human leukemia T cells; test: Intracellular calcium (Fluo-3-AM fluorescence); format: cell-based; conditions: 24 h, 100 μg/ml
Protocol: Increases in intracellular calcium (Ca^2+)i are reported to be associated with apoptosis induction (Lam et al. Mol. Endocrinol. 7:686, 1993). (Ca^2+)i was followed using the fluorescent probe Fluo-3-AM (Cell Permaant, Molecular Probes, Inc., Eugene, Oreg.). An increase in Fluo-3-AM fluorescence is indicative of an increase in (Ca^2+)i.
Jurkat human leukemia T cells were incubated for 24 h with 6 base GT SEQ. NO:25. Cells were collected by centrifugation, suspended in PBS containing 1% FBS and loaded with 10 μM Fluo-3-AM for 1 h at 37° C. Cell fluorescence was measured at 488 nm excitation and 530 nm emission (FL1 detector). Data were analyzed on a FACSCALIBUR using the program CellQUEST (Becton Dickinson).

[4] = system: PARP; test: PARP cleavage by Western blot; format: cell-based, human; conditions: Jurkat, 72 h, 100 μg/ml (FIG. 3B)
Protocol: Jurkat T cell leukemia cells were incubated for 72 h with 6 base GT SEQ ID NO:25. The cells were washed 3× with PBS, lysed with 10 mM HEPES, pH 7.5 containing 5 mM MgCl2, 1 mM dithiothreitol, 1.5 nM aprotinin, 10 mM leupeptin and 2.5 μm Na orthovanadate, and the protein content of the lysate was determined (Bradford J. Anal. Biochem. 72:248, 1976).
Activated caspase 7 and PARP cleavage were detected by Western blot analysis. Lysate was mixed with Laemmli buffer (Laemmli U. Nature […], 1970), shaken, and heated at 100° C. for 4 min. […] The separated proteins were electroblotted onto a PVDF membrane. Equal protein loading was monitored by Ponceau red staining of the membrane.
The membrane was blocked overnight at 4° C. with a buffer containing 1% Tris-buffered saline (2 mM Tris-HCl, 13.7 mM NaCl, pH 7.6, and 0.1% polyethylenesorbitan monolaurate (TWEEN 20) (TBST) +5% non-fat dry milk. The membrane was washed and was incubated for 1 h at RT with a mouse monoclonal IgG anti-caspase 7 antibody (Pharmingen) (diluted 1:1000 in TBST+1% BSA) or with a mouse monoclonal IgG anti-PARP antibody (diluted 1:1000 in TBST+1% BSA) (Pharmingen). IgG bound to caspase 7 or to PARP was detected with sheep anti-mouse IgG conjugated to horseradish peroxidase (diluted 1:1000 in TBST+5% non-fat dry milk) (Pharmingen). […]

[5] = Melting temperature (Tm) of sequences; format: physicochemical
[6] = system: LNCaP human prostate cancer cells; test: LNCaP human prostate cancer xenografts in male nude nu/nu mice; format: in vivo; conditions: after 4 weeks of treatment, compared with other groups (group 1 saline, group 5 BCG A-3)
Protocol: LNCaP human prostate cancer cells are implanted subcutaneously, as xenografts, in male nude nu/nu mice. The mice are divided into 5 groups of 10 mice. On day 0, group 1 mice receive saline, group 2 mice receive 3 base SEQ ID NO:8, group 3 mice receive 6 base GT SEQ ID NO:25, group 4 mice receive 6 base AG SEQ ID NO:45 and group 5 mice receive 45 base BCG A-3 SEQ ID NO:69. After 4 weeks of treatment, the mice are sacrificed and timor mass is determined.

[7] = system: EL-4 murine T lymphoma cells; test: EL-4 murine T lymphoma in C57/BL6 mice; format: in vivo; conditions: after 4 weeks of treatment, compared with group 1 (saline)
Protocol: EL-4 murine T lymphoma cells are implanted into C57/BL6 mice. The mice are divided into 6 groups of 10 mice. On day 0, group 1 mice receive saline, group 2 mice receive 3 base GT SEQ ID NO:8, group 3 mice receive 6 base SEQ ID NO:25, group 4 mice receive 6 base AG SEQ ID NO:45, group 5 mice receive 18 base GT SEQ ID NO: 18 and group 6 mice receive 27 base GT SEQ ID NO:1. After 4 weeks of treatment, the mice are sacrificed and tumor mass is determined.

GGGTGG [SEQ ID NO:25]
% INHIBITION of SK-OV-3 human ovarian cancer cell proliferation [1]: 12%
% cells in phase: G0/G1 [2]: 21.9%
% cells in phase: G2/M [2]: 17.4%
% cells in phase: SE [2]: 27.6%
% cells in phase: SL [2]: 10.9%
% cells in phase: SM [2]: 22.2%
Arrest (cell cycle) [2]: End SM
increase in cell fluorescence (Fluo-3-AM), indicative of (Ca2+)i [3]: 88%
PARP cleavage [4]: active PARP to its inactive 85 kDa degradation product
melting temperature (Tm) [5]: 2.5 °C
tumor mass [6]: less tumor mass than groups 1 and 5 mice
tumor mass [7]: less tumor mass than group 1 mice
